Assay results reported in patent publication US12030877B2, “Prostaglandin E synthase inhibitors and methods for utilizing the same” (University of Kentucky Research Foundation, priority 2016, dated 2024).
Where two headings read alike, the source gives them in different places.

Tests used:
[1] = target: T1, mPGES-1 Mouse enzyme (Mus musculus, UniProt Q9JM51); experiment: mPGES-1 enzyme activity assay (PGE2 enzyme immunoassay), mouse enzyme; type: biochemical; details: for IC50: recombinant microsomal enzyme, means ± SD, triplicate; for inhibition at 10 µM: compound at a concentration of 10 μM, read-out: % inhibition of the compound against mPGES-1, Mouse enzyme
T1 construct: made in house; host or cells: FreeStyle 293-F cells, crude microsomal preparation
T1 sequence (Q9JM51 1-153): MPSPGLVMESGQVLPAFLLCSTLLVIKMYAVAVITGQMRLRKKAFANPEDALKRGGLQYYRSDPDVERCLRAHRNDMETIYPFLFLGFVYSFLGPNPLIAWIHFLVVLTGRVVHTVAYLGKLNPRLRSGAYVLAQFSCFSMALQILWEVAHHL
Description: (§1) Studies were conducted to characterize the inhibitory activity against recombinant mPGES-1 of the compounds synthesized in accordance with Examples 1-4, and disclosed herein.
(§2) Briefly, FreeStyle 293-F cells were cultured following manufacturer's manual in FreeStyle 293 expression medium on orbit rotate shaker in 8% CO2 incubator at 37° C. Cells were transfected with 1.5 μg/mL of mPGES-1/pcDNA3 construct using FreeStyle Max reagent at a cell density of 1×10^6 for 2 days. Transfected cells were collected, washed, and sonicated in TSES buffer (15 mM Tris-HCl, pH 8.0 plus 0.25 M sucrose, 0.1 mM EDTA and 1 mM DTT) on ice. The broken cells were first centrifuged at 12,500×g for 10 min. The supernatant was further centrifuged at 105,000×g for 1 hr at 4° C. The pellet was washed and homogenized in PBS buffer. The crude microsomal mPGES-1 preparation was aliquoted and stored at −80° C. The crude protein concentration was 8 mg/mL.
(§3) The enzyme activity assays were performed on ice in 1.5 ml microfuge tubes by using the expressed mPGES-1. The reaction mixture contained: 0.2 M Na2HPO4/NaH2PO4, pH 7.2, 10 μL; 0.1 M GSH, 2.5 μL; diluted microsomal enzyme (80 μg/mL), 1 μL; PGH2 (0.31 mM in DMF), 5 μL; 1 μL inhibitor; and H2O in a final reaction volume of 100 μL. PGH2 was stored in dry ice and used to initiate the reaction.
(§4) Compounds were incubated with the enzyme for 15 min at room temperature before the addition of cold PGH2 (1 μM final) to initiate the enzyme reaction. After 30 s, 10 μL of SnCl2 (40 mg/mL) in ethanol was added to stop the reaction. The nonenzymatic conversion of PGH2 to PGE2 was performed in the same buffer devoid of enzyme. The reaction mixture was placed on ice until PGE2 production was determined by the PGE2 enzyme immunoassay as described earlier. IC50 values of the inhibitors were calculated by using the GraphPad Prism 4.0 program. The results are set forth in the tables provided in Examples 7-10.

[2] = target: T2, mPGES-1 (Homo sapiens, UniProt O14684); experiment: mPGES-1 enzyme activity assay (PGE2 enzyme immunoassay), human enzyme; type: biochemical; set-up: made in house; host or cells: FreeStyle 293-F cells, crude microsomal preparation; details: for IC50: recombinant microsomal enzyme, means ± SD, triplicate
T2 sequence (O14684 1-152): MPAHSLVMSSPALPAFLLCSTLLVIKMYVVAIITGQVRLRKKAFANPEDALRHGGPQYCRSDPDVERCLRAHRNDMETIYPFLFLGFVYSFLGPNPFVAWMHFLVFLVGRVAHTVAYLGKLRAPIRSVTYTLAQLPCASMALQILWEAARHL
Description: as §1, §2, §3, §4

[3] = read-out: IC50 against mPGES-1, Mouse enzyme
[4] = read-out: IC50 against mPGES-1, Human enzyme
[5] = IC50 against mPGES-1, Mouse enzyme
[6] = IC50 against mPGES-1, Human enzyme

| SMILES | IC50 [1, 3] [nM] | IC50 [2, 4] [nM] | inhibition at 10 µM [1] [%] | also measured |
| --- | --- | --- | --- | --- |
| O=C(O)CN1C(=O)S/C(=C2\C(=O)N(CC3CCCCC3)c3ccc(-c4ccccc4)cc32)C1=O [II-18] | 394 ± 58 | 221 ± 47 |  |  |
| O=C(O)CN1C(=O)S/C(=C2\C(=O)N(CC3CCCCC3)c3ccc(-c4ccc(C#CC5CCCCC5)cc4)cc32)C1=O [II-22] | 685 ± 406 | 25 ± 5 |  |  |
| CCOc1ccc(-c2nn(-c3ccc(Cl)cc3)cc2/C=C2\SC(=O)N(CC(=O)O)C2=O)cc1 [VII-10] |  | 41 ± 5 | 35 |  |
| O=C(O)CN1C(=O)S/C(=C2\C(=O)N(CCC3CCCCC3)c3ccc(-c4ccccc4)cc32)C1=O [II-24] | 777 ± 364 | 32 ± 6 |  |  |
| COc1ccc(C=C2C(=O)NC(=O)NC2=O)cc1OCCCCC1CCCCC1 [Compound I-12] |  |  |  | IC50 [1, 5]: 727 ± 109 nM; IC50 [2, 6]: 152 ± 53 nM |
| CCCCCCCCOc1ccc(-c2nn(-c3ccc(Cl)cc3)cc2C=C2C(=O)NC(=O)NC2=O)cc1 [VI-06] |  | 361 ± 51 |  | IC50 [1, 5]: 740 ± 108 nM |
| O=C(O)CN1C(=O)S/C(=C2\C(=O)N(CCCOc3ccc4ccccc4c3)c3ccccc32)C1=O [II-11] | 1020 ± 131 | 1680 ± 168 |  |  |
| O=C(CCCCCN1C(=O)C=CC1=O)Nc1ccc2c(c1)Cc1ccccc1-2 [III-02] | 2880 ± 496 | 613 ± 103 |  |  |
| CCCCCCCCCCOc1ccc(-c2nn(-c3ccc(Cl)cc3)cc2C=C2C(=O)NC(=S)NC2=O)cc1 [VI-17] |  | 93 ± 14 | 56 |  |
| CCCCCCCCCN1C(=O)/C(=C2\SC(=O)N(CC(=O)O)C2=O)c2ccccc21 [II-16] | 1400 ± 217 | 199 ± 32 |  |  |
| CCCCCCCCCCOc1ccc(-c2nn(-c3ccc(Cl)cc3)cc2/C=C(/C#N)C(=O)O)cc1 [VII-19] |  | 97 ± 15 | 4.6 |  |
| CCCCOc1ccc(-c2nn(-c3ccccc3)cc2/C=C(/C#N)C(=O)O)cc1 [VII-13] |  | 296 ± 68 | 21 |  |
| CCCCCCCN1C(=O)/C(=C2\SC(=O)N(CC(=O)O)C2=O)c2ccccc21 [II-14] |  | 324 ± 44 | 67 |  |
| O=C(O)CN1C(=O)/C(=C2\SC(=S)NC2=O)c2ccccc21 [II-30] |  | 211 ± 67 | 6.1 |  |
| O=C(O)CN1C(=O)S/C(=C2\C(=O)N(CCCC3CCCCC3)c3ccc(-c4ccccc4)cc32)C1=O [II-25] | 1220 ± 430 | 16 ± 4 |  |  |
| CCCCCCOc1ccc(C=C(C#N)C#N)cc1[N+](=O)[O-] [Compound V-04] | 754 ± 73 | 285 ± 40 |  |  |
| CCCCOc1ccc(-c2nn(-c3ccc(Cl)cc3)cc2C=C2C(=O)NC(=S)NC2=O)cc1 [VI-12] |  | 56 ± 10 |  | IC50 [1, 5]: 445 ± 83 nM |
| O=C1NC(=O)C(Cc2ccc(OCCCCC3CCCCC3)c([N+](=O)[O-])c2)C(=O)N1 [Compound I-44] |  |  |  | IC50 [1, 5]: 3350 ± 560 nM; IC50 [2, 6]: 136 ± 23 nM |
| O=C1NC(=O)C(=Cc2ccc(OCCCCc3ccccc3)c(Cl)c2)C(=O)N1 [Compound I-33] |  |  |  | IC50 [1, 5]: 2790 ± 525 nM; IC50 [2, 6]: 73 ± 10 nM |
| O=C1NC(=O)C(=Cc2ccc(OCCCCC3CCCCC3)c(Cl)c2)C(=O)N1 [Compound I-21] |  |  |  | IC50 [1, 5]: 415 ± 120 nM; IC50 [2, 6]: 28 ± 3 nM |
| O=C(O)CN1C(=O)S/C(=C2\C(=O)N(Cc3ccc(Cl)cc3)c3ccccc32)C1=O [II-02] |  | 614 ± 63 | 45 |  |
| O=C1NC(=O)C(Cc2ccc(OCCCCC3CCCCC3)c(Br)c2)C(=O)N1 [Compound I-43] |  |  |  | IC50 [1, 5]: 1090 ± 211 nM; IC50 [2, 6]: 97 ± 13 nM |
| CCCCCCN1C(=O)/C(=C2\SC(=O)N(CC(=O)O)C2=O)c2ccccc21 [II-13] |  | 1070 ± 116 | 57 |  |
| O=C(O)CN1C(=O)S/C(=C2\C(=O)N(CCC3CCCCC3)c3ccccc32)C1=O [II-07] |  | 494 ± 32 | 39 |  |
| CCCCCCCCCCOc1ccc(-c2nn(-c3ccccc3)cc2/C=C(/C#N)C(=O)O)cc1 [VII-18] |  | 197 ± 32 | 4.3 |  |
| CCCCCCCCCCOc1ccc(-c2nn(-c3ccccc3)cc2C=C2C(=O)NC(=S)NC2=O)cc1 [VI-16] |  |  | 50 | IC50 [2, 6]: 188 ± 31 nM |

| SMILES | IC50 [1, 3] [nM] | IC50 [2, 4] [nM] | inhibition at 10 µM [1] [%] | also measured |
| --- | --- | --- | --- | --- |
| O=C1NC(=O)C(=Cc2ccc(OCCC3CCCCC3)c([N+](=O)[O-])c2)C(=O)N1 [Compound I-37] |  |  |  | IC50 [1, 5]: 2390 ± 425 nM; IC50 [2, 6]: 517 ± 68 nM |
| CCCCCCCOc1ccc(C=C2C(=O)NC(=O)NC2=O)cc1[N+](=O)[O-] [Compound I-40] |  |  |  | IC50 [1, 5]: 734 ± 119 nM; IC50 [2, 6]: 232 ± 54 nM |
| O=C(O)CN1C(=O)S/C(=C2\C(=O)N(CC3CCCCC3)c3ccc(-c4ccc(C#Cc5ccccc5)cc4)cc32)C1=O [II-21] | 1960 ± 348 | 91 ± 23 |  |  |
| CCOc1ccc(-c2nn(-c3ccc(Cl)cc3)cc2C=C2C(=O)NC(=S)NC2=O)cc1 [VI-10] |  | 95 ± 16 | 46 |  |
| O=C1S/C(=C\c2ccc(Oc3cc([N+](=O)[O-])c([N+](=O)[O-])cc3F)c([N+](=O)[O-])c2)C(=O)N1CCCCC1CCCCC1 [IV-01] |  | 296 ± 48 | 91 |  |
| O=C(CCCN1C(=O)C=CC1=O)Nc1ccc(OCCCC2CCCCC2)cc1 [III-03] |  |  | 55 | inhibition at 10 µM ([2]; compound at a concentration of 10 μM, read-out: % inhibition of the compound against mPGES-1, Human enzyme): 63% |
| CCCCCCCOc1ccc(C=C(C#N)C#N)cc1 [Compound V-10] | 1390 ± 255 | 136 ± 13 |  |  |
| CCCCCCCOc1c(Br)cc(C=C(C#N)C#N)cc1OC [Compound V-15] | 357 ± 52 | 83 ± 14 |  |  |
| CCCCCCOc1c(Br)cc(C=C(C#N)C#N)cc1OC [Compound V-13] | 1630 ± 250 | 181 ± 33 |  |  |
| O=C1NC(=O)C(=Cc2ccc(OCCCOc3ccc4ccccc4c3)c(Cl)c2)C(=O)N1 [Compound I-36] |  |  | 19 | IC50 [2, 6]: 365 ± 59 nM |
| O=C1NC(=O)C(=Cc2ccc(OCC3CCCCC3)c([N+](=O)[O-])c2)C(=O)N1 [Compound I-38] |  |  | 42 | IC50 [2, 6]: 1110 ± 104 nM |
| CCOc1ccc(-c2nn(-c3ccc(Cl)cc3)cc2/C=C(/C#N)C(=O)O)cc1 [VII-12] |  | 282 ± 83 | 12 |  |
| O=C1NC(=O)C(=Cc2cn(-c3ccccc3)nc2-c2ccc(OCc3ccccc3)cc2)C(=O)N1 [VI-09] |  |  | 0 | IC50 [2, 6]: 598 ± 142 nM |
| COc1cc(C=C2C(=O)NC(=O)NC2=O)cc(Br)c1OCCCCC1CCCCC1 [Compound I-10] |  |  |  | IC50 [1, 5]: 292 ± 47 nM; IC50 [2, 6]: 69 ± 16 nM |
| CCCCCCCOc1ccc(C=C(C#N)C#N)cc1OC [Compound V-35] | 7290 ± 2550 | 256 ± 33 |  |  |
| O=C1NC(=O)/C(=C2/C(=O)N(CCCC3CCCCC3)c3ccccc32)S1 [II-28] |  | 1390 ± 273 | 0 |  |
| CCCCCCCCCCOc1ccc(-c2nn(-c3ccc(Cl)cc3)cc2C=C2C(=O)NC(=O)NC2=O)cc1 [VI-08] |  | 294 ± 83 | 24 |  |
| O=C(O)CN1C(=O)S/C(=C2\C(=O)N(CCc3ccccc3)c3ccccc32)C1=O [II-03] |  | 348 ± 44 | 62 |  |
| O=C1NC(=O)C(=Cc2c(OCCCCC3CCCCC3)ccc3ccccc23)C(=O)N1 [Compound I-16] |  |  |  | IC50 [1, 5]: 7040 ± 1850 nM; IC50 [2, 6]: 154 ± 18 nM |
| CCCCCCCCCCN1C(=O)/C(=C2\SC(=O)N(CC(=O)O)C2=O)c2ccccc21 [II-17] | 935 ± 135 | 217 ± 30 |  |  |
| CCCCOc1ccc(C=C(C#N)C#N)cc1OC [Compound V-22] | 1770 ± 241 | 348 ± 100 |  |  |
| O=C(CCCN1C(=O)C=CC1=O)Nc1ccc2c(c1)Cc1ccccc1-2 [III-01] |  | 1920 ± 300 | 48 |  |
| CCCCCCCCN1C(=O)/C(=C2\SC(=O)N(CC(=O)O)C2=O)c2ccccc21 [II-15] | 2680 ± 302 | 314 ± 44 |  |  |
| COc1cc(C=C2C(=O)NC(=O)NC2=O)cc(Cl)c1OCCCCC1CCCCC1 [Compound I-09] |  |  |  | IC50 [1, 5]: 360 ± 56 nM; IC50 [2, 6]: 22 ± 7 nM |
| O=C(O)CN1C(=O)S/C(=C2\C(=O)N(CCCCC3CCCCC3)c3ccccc32)C1=O [II-09] | 947 ± 183 | 499 ± 108 |  |  |
| N#C/C(=C/c1cn(-c2ccccc2)nc1-c1ccc(OCc2ccccc2)cc1)C(=O)O [VII-20] |  | 806 ± 162 | 16 |  |
